{"source": "PubChem BioAssay (NCI)", "experiment_in_all_cases": "NCI tumour cell line growth inhibition, 48 h", "key": {"MDA-MB-231 breast": {"test_system": "MDA-MB-231 breast"}, "DLD-1 colon": {"test_system": "DLD-1 colon"}, "P388 leukemia": {"test_system": "P388 leukemia"}, "DMS 114 small cell lung": {"test_system": "DMS 114 small cell lung"}, "SN12K1 renal": {"test_system": "SN12K1 renal"}, "P388/ADR leukemia": {"test_system": "P388/ADR leukemia"}, "DU-145 prostate": {"test_system": "DU-145 prostate"}}, "note": "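Grown in 96-well plates, cells were treated for 48 hours with each compound at five concentrations. Insufficient inhibition: endpoint recorded as highest concentration tested. At the TGI there is no net growth.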"}
{"smiles": "CC(O)CCC(=O)c1ccoc1", "note": "(configuration not stated)", "values": [{"measurement": "TGI", "setting": "MDA-MB-231 breast", "value": "> 10", "unit": "mM"}, {"measurement": "TGI", "setting": "DLD-1 colon", "value": "> 10", "unit": "mM"}, {"measurement": "TGI", "setting": "P388 leukemia", "value": "> 10", "unit": "mM"}, {"measurement": "TGI", "setting": "DMS 114 small cell lung", "value": "> 9.67", "unit": "mM"}, {"measurement": "TGI", "setting": "SN12K1 renal", "value": "> 10", "unit": "mM"}, {"measurement": "TGI", "setting": "P388/ADR leukemia", "value": "> 10", "unit": "mM"}, {"measurement": "TGI", "setting": "DU-145 prostate", "value": "> 10", "unit": "mM"}]}
